Laboratory results reported in patent US20080292584A1 (priority 2005, published 2008).
“And” between values parts separate entries of the source, which are not always exact repeats. Equal values may be shown once. Read-outs that look alike come from different tables or passages of the source.

Legend:
CYP2B6 = target: T1, CYP2B6 (Homo sapiens, UniProt P20813); assay: Inhibition of CYP2B6 activity in pooled human liver microsomes (S-mephenytoin 1 mM to nirvanol); format: in vitro ADME
T1 sequence (P20813 1-491): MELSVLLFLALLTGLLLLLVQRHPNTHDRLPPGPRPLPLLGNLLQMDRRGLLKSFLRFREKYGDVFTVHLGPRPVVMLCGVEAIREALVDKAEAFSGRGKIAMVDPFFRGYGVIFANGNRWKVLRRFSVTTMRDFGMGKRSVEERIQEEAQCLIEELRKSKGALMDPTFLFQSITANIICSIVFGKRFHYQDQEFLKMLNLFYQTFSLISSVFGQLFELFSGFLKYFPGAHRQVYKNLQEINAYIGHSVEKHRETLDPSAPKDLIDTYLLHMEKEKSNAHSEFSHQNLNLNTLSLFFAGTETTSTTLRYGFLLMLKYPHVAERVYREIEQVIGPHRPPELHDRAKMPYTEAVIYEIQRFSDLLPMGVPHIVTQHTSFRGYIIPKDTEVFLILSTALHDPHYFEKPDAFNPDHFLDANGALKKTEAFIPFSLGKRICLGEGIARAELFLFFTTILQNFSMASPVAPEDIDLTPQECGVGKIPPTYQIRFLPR
Protocol: All other incubations were for 30 minutes.
Four replicates were performed.
Two replicates were performed.

CYP2C9 = CYP2C9 (Homo sapiens, UniProt P11712); conditions: 1 mg/mL HLM, 60 min, with sulfaphenazole; for % Turnover / % inhibition of turnover / Conc.: single replicates
CYP2C9, sequence (P11712 whole entry): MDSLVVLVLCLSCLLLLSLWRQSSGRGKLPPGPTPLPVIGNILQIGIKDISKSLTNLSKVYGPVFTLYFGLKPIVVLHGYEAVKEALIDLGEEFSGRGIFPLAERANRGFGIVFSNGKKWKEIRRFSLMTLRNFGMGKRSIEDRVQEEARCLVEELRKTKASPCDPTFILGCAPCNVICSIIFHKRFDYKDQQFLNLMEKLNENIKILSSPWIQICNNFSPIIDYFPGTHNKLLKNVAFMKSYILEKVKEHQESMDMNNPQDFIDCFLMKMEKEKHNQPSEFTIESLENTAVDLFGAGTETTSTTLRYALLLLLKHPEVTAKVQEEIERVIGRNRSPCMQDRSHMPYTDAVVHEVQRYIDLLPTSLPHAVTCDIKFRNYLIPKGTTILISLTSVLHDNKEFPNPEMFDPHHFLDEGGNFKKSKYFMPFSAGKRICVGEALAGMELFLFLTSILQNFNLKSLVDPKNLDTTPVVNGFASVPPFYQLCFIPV
Protocol: Human liver microsomes pooled from 15 individuals (male and female) (Pool HMMC-PL020; CellzDirect, Inc., In Vitro Products and Services Division) were used in some experiments of this study.
% Turnover=100−{[TA(final)]/[mean of TA(0 min)]}×100,
% Inhibition of Turnover=100{1−([TA(0 min)]−[TA(final-inhibitor)])/([TA(0 min)]−[TA(final-no inhibitor)])}.
The inhibitors or vehicle control were incubated with the pooled human liver microsomes (1 mg/mL) and NADPH (1 mM) in 0.1 M phosphate buffer, pH 7.4. […] Incubations were conducted in triplicate and terminated by addition of organic solvent. Samples were extracted and analyzed by LC-MS/MS as described above.

CYP2C19 = CYP2C19 (Homo sapiens, UniProt P33261); conditions: for 4′-Hydroxymephenytoin formation Adjusted Individual / 4′-Hydroxymephenytoin formation Adjusted Mean ± SD: 4 h; for Percent of VC / Specific Activity Individual / Specific Activity Mean ± SD: 48 h
CYP2C19, sequence (P33261 whole entry): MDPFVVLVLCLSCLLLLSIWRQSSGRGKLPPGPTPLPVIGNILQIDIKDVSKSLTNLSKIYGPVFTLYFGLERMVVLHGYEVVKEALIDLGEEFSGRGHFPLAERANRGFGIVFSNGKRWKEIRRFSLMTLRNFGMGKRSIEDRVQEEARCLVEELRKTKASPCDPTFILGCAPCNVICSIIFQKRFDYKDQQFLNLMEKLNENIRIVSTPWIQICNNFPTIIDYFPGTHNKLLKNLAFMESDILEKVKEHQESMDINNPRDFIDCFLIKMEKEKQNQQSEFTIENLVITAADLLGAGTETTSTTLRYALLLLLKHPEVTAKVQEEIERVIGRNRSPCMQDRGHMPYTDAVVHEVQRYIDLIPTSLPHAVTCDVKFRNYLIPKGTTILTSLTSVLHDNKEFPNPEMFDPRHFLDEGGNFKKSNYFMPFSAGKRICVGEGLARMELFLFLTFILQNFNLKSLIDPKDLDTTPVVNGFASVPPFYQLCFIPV
Description: Hepatocytes from three human donors were obtained from a cryopreserved hepatocyte bank (In Vitro Technologies, Inc., USA). After thawing, viable hepatocytes were transferred to collagen-coated 48-well plates for attachment in plating medium (DMEM stock (Dulbecco's modified Eagle's medium, supplemented with bovine serum albumin, fructose, N-(2-hydroxyethyl)piperazine-N′-(2-ethanesulfonate) (HEPES), and sodium bicarbonate), supplemented with antibiotics, bovine serum, hydrocortisone, insulin and minimum essential medium (MEM) nonessential amino acids). After attachment to the collagen matrix, plating medium was replaced with sandwich medium (plating medium supplemented with VITROGEN) and incubated until use.
The supplemented KHB was replaced with 150 μL supplemented KHB containing the appropriate isoform-selective substrate and incubated for 4 hrs prior to termination by adding 150 μL ice-cold methanol, except for the CYP2C8 incubations which were terminated by adding 150 μL acetonitrile.
All substrates were dissolved in acetonitrile.
Replicate trials and controls were performed. […] Additionally, reference control samples were included to evaluate inducibility of CYP2B6, CYP2C9, and CYP2C19 in the test system.
Mean specific activity values with associated p-values≦0.05 were deemed to be statistically significant.

human CYP1A2 = target: T2, human CYP1A2 (Homo sapiens, UniProt P05177); assay: Metabolism of metaxalone by expressed recombinant human CYP1A2 (disappearance of metaxalone, HPLC; Example 1); conditions: 30 min;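 also: recombinant CYP1A2 microsomes (10 pmol P450) in Tris buffer containing 1% methanol, reactions driven by an NADPH regenerating system, 0.5 mL incubations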
T2 sequence (P05177 2-516 limits assumed): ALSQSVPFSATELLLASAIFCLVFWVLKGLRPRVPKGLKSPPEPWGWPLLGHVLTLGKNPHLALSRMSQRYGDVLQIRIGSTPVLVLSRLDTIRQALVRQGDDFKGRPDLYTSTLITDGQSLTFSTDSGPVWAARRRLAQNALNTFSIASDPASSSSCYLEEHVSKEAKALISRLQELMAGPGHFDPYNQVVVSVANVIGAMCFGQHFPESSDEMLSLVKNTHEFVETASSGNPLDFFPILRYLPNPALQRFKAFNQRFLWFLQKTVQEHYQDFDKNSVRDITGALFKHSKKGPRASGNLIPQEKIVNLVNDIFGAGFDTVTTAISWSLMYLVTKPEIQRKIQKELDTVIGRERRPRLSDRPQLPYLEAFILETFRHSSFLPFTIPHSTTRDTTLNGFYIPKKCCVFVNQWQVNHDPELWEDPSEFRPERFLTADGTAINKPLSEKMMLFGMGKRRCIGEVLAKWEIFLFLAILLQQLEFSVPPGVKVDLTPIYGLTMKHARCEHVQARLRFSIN
Protocol: Commercially available microsomes from baculovirus-infected insect cells containing singly-expressed recombinant wild-type (*1 allele) human CYP enzymes and cDNA-expressed human cytochrome p450 oxidoreductase [BD SUPERSOMES Enzymes; BD Biosciences Discovery Labware (Woburn, Mass.)] were used.
After a 5-minute pre-incubation, an NADPH regenerating system (NRS) was added to the incubation mixtures to initiate reactions, with a final incubation volume of 0.5 mL. Incubations were continued for 30 minutes, and then terminated, except for those for CYP2C19, which were incubated for 36 minutes prior to termination.
Matrix controls were performed to determine the background signal from the matrix components (microsomes (10 pmol p450), 01N Tris buffer, NRS, and 1% methanol). […] After a 5-minute pre-incubation, 2% sodium bicarbonate solution was added to the incubation mixtures. Incubation was for 30 minutes at a final volume of 0.5 mL. Matrix and metabolic negative controls were terminated by adding an equal volume of methanol. […] Analysis of samples was subsequent to storage at −70° C.

`Cc1cc(C)cc(OCC2CNC(=O)O2)c1` (stereo not drawn) [metaxalone, 5-[(3,5-dimethylphenoxy)methyl]-2-oxazolidinone] was tested, and the “inhibition of CYP activity at a statistically significant level” value (CYP2B6; 0.3-100 μM metaxalone, p≦0.05) was “inhibited”, the Inhibitor (CYP2B6; CYP isozyme 2B6, summary of studies) was “+” and the “Percent of VC” value (CYP2B6; metaxalone 0.3 μM) was 90.2%. The “Specific Activity Individual” value (CYP2B6; metaxalone 0.3 μM) was 27.9 pmol/min/mg protein and 25.6 pmol/min/mg protein and 27.5 pmol/min/mg protein, the “Specific Activity Mean ± SD” value (CYP2B6; metaxalone 0.3 μM) was 27.0 ± 1.21 pmol/min/mg protein and the “Percent of VC” value (CYP2B6; metaxalone 1 μM) was 99.5%. For the same molecule, the “Specific Activity Individual” value (CYP2B6; metaxalone 1 μM) was 27.3 pmol/min/mg protein and 29.5 pmol/min/mg protein and 32.6 pmol/min/mg protein, the “Specific Activity Mean ± SD” value (CYP2B6; metaxalone 1 μM) was 29.8 ± 2.68 pmol/min/mg protein and the “Percent of VC” value (CYP2B6; metaxalone 3 μM) was 90.6%. The “Specific Activity Individual” value (CYP2B6; metaxalone 3 μM) was 26.3 pmol/min/mg protein and 26.9 pmol/min/mg protein and 28.2 pmol/min/mg protein, the “Specific Activity Mean ± SD” value (CYP2B6; metaxalone 3 μM) was 27.1 ± 1.00 pmol/min/mg protein and the “Percent of VC” value (CYP2B6; metaxalone 30 μM) was 96.6%. The “Specific Activity Individual” value (CYP2B6; metaxalone 30 μM) was 28.9 pmol/min/mg protein and 28.7 pmol/min/mg protein and 29.2 pmol/min/mg protein, the “Specific Activity Mean ± SD” value (CYP2B6; metaxalone 30 μM) was 28.9 ± 0.216 pmol/min/mg protein and the “Percent of VC” value (CYP2B6; metaxalone 100 μM) was 83.7%. The “Specific Activity Individual” value (CYP2B6; metaxalone 100 μM) was 24.9 pmol/min/mg protein and 24.6 pmol/min/mg protein and 25.7 pmol/min/mg protein, the “Specific Activity Mean ± SD” value (CYP2B6; metaxalone 100 μM) was 25.1 ± 0.581 pmol/min/mg protein and the “% Turnover Mean” value (CYP2C9; 0.75 μM metaxalone) was 5.53%. The “% inhibition of turnover Mean” value (CYP2C9; 0.75 μM metaxalone) was 81.4%, the “Mean Conc.” value (CYP2C9; 0.75 μM metaxalone) was 0.729 µM and the “% Turnover” value (CYP2C9; 0.75 μM metaxalone) was 5.4% and 5.6% (2×). The “% inhibition of turnover” value (CYP2C9; 0.75 μM metaxalone) was 81.9% and 81.3%, the “Conc.” value (CYP2C9; 0.75 μM metaxalone) was 0.730 µM and the “% Turnover Mean” value (CYP2C9; 7.5 μM metaxalone) was 11.6%. For the same molecule, the “% inhibition of turnover Mean” value (CYP2C9; 7.5 μM metaxalone) was 52.8%, the “Mean Conc.” value (CYP2C9; 7.5 μM metaxalone) was 7.52 µM and the “% Turnover” value (CYP2C9; 7.5 μM metaxalone) was 10.2% and 12.6%. The “% inhibition of turnover” value (CYP2C9; 7.5 μM metaxalone) was 51.0% and 58.5% and 48.8%, the “Conc.” value (CYP2C9; 7.5 μM metaxalone) was 7.49 µM and 7.65 µM and 7.44 µM and the Inducer/Inhibitor (CYP2C19) was 0. The “4′-Hydroxymephenytoin formation Adjusted Individual” value (CYP2C19; 0.4 µM) was less than 0.0500 µM, the “4′-Hydroxymephenytoin formation Adjusted Mean ± SD” value (CYP2C19; 0.4 µM) was less than 0.0500 ± 0.000 µM and the “4′-Hydroxymephenytoin formation Adjusted Individual” value (CYP2C19; 0.4 μM) was less than 0.0500 µM. The “4′-Hydroxymephenytoin formation Adjusted Mean ± SD” value (CYP2C19; 0.4 μM) was less than 0.0500 ± 0.000 µM, the “4′-Hydroxymephenytoin formation Adjusted Individual” value (CYP2C19; 4 µM) was less than 0.0500 µM and the “4′-Hydroxymephenytoin formation Adjusted Mean ± SD” value (CYP2C19; 4 µM) was less than 0.0500 ± 0.000 µM. For the same molecule, the “4′-Hydroxymephenytoin formation Adjusted Individual” value (CYP2C19; 4 μM) was less than 0.0500 µM, the “4′-Hydroxymephenytoin formation Adjusted Mean ± SD” value (CYP2C19; 4 μM) was less than 0.0500 ± 0.000 µM and the “4′-Hydroxymephenytoin formation Adjusted Individual” value (CYP2C19; 40 µM) was less than 0.0500 µM. For the same molecule, the “4′-Hydroxymephenytoin formation Adjusted Mean ± SD” value (CYP2C19; 40 µM) was less than 0.0500 ± 0.000 µM, the “4′-Hydroxymephenytoin formation Adjusted Individual” value (CYP2C19; 40 μM) was less than 0.0500 µM and the “4′-Hydroxymephenytoin formation Adjusted Mean ± SD” value (CYP2C19; 40 μM) was less than 0.0500 ± 0.000 µM. For the same molecule, the “Percent of VC” value (CYP2C19; 0.4 µM) was 100%, the “Specific Activity Individual” value (CYP2C19; 0.4 µM) was less than 0.446 pmol/min/million cells and the “Specific Activity Mean ± SD” value (CYP2C19; 0.4 µM) was less than 0.446 ± 0.000 pmol/min/million cells. The “Percent of VC” value (CYP2C19; 0.4 μM) was 100%, the “Specific Activity Individual” value (CYP2C19; 0.4 μM) was less than 0.446 pmol/min/million cells and the “Specific Activity Mean ± SD” value (CYP2C19; 0.4 μM) was less than 0.446 ± 0.000 pmol/min/million cells. For the same molecule, the “Percent of VC” value (CYP2C19; 4 µM) was 100%, the “Specific Activity Individual” value (CYP2C19; 4 µM) was less than 0.446 pmol/min/million cells and the “Specific Activity Mean ± SD” value (CYP2C19; 4 µM) was less than 0.446 ± 0.000 pmol/min/million cells. For the same molecule, the “Percent of VC” value (CYP2C19; 4 μM) was 100%, the “Specific Activity Individual” value (CYP2C19; 4 μM) was less than 0.446 pmol/min/million cells and the “Specific Activity Mean ± SD” value (CYP2C19; 4 μM) was less than 0.446 ± 0.000 pmol/min/million cells. For the same molecule, the “Percent of VC” value (CYP2C19; 40 µM) was 100%, the “Specific Activity Individual” value (CYP2C19; 40 µM) was less than 0.446 pmol/min/million cells and the “Specific Activity Mean ± SD” value (CYP2C19; 40 µM) was less than 0.446 ± 0.000 pmol/min/million cells. For the same molecule, the “Percent of VC” value (CYP2C19; 40 μM) was 100%, the “Specific Activity Individual” value (CYP2C19; 40 μM) was less than 0.446 pmol/min/million cells and the “Specific Activity Mean ± SD” value (CYP2C19; 40 μM) was less than 0.446 ± 0.000 pmol/min/million cells. The “Metaxalone Present Adjusted Individual” value (human CYP1A2; metaxalone 0.5 μM) was 0.302 µM and 0.440 µM and 0.315 µM, the “Metaxalone Present Adjusted Mean ± SD” value (human CYP1A2; metaxalone 0.5 μM) was 0.352 ± 0.0761 µM and the “Metaxalone Present Raw” value (human CYP1A2; metaxalone 0.5 μM) was 0.1509 µM and 0.2198 µM and 0.1573 µM. For the same molecule, the “Percent of Metabolic Negative Control Individual” value (human CYP1A2; metaxalone 0.5 μM) was 77.1% and 112% and 80.4%, the “Percent of Metabolic Negative Control Mean ± SD” value (human CYP1A2; metaxalone 0.5 μM) was 89.9 ± 19.4% and the “Metaxalone Present Adjusted Individual” value (human CYP1A2; metaxalone 2.5 μM) was 1.05 µM and 1.06 µM and 1.08 µM. For the same molecule, the “Metaxalone Present Adjusted Mean ± SD” value (human CYP1A2; metaxalone 2.5 μM) was 1.07 ± 0.0167 µM, the “Metaxalone Present Raw” value (human CYP1A2; metaxalone 2.5 μM) was 0.527 µM and 0.5291 µM and 0.5423 µM and the “Percent of Metabolic Negative Control Individual” value (human CYP1A2; metaxalone 2.5 μM) was 79.5% and 79.8% and 81.8%. For the same molecule, the “Percent of Metabolic Negative Control Mean ± SD” value (human CYP1A2; metaxalone 2.5 μM) was 80.4 ± 1.26%, the “Metaxalone Present Adjusted Individual” value (human CYP1A2; metaxalone 25 μM) was 16.4 μM (2×) and 17.0 μM and the “Metaxalone Present Adjusted Mean ± SD” value (human CYP1A2; metaxalone 25 μM) was 16.6 ± 0.337 µM. For the same molecule, the “Metaxalone Present Raw” value (human CYP1A2; metaxalone 25 μM) was 8.205 µM and 8.192 µM and 8.49 µM, the “Percent of Metabolic Negative Control Individual” value (human CYP1A2; metaxalone 25 μM) was 82.8% and 82.6% and 85.6% and the “Percent of Metabolic Negative Control Mean ± SD” value (human CYP1A2; metaxalone 25 μM) was 83.7 ± 1.70%.
